Laboratory results as given in ChEMBL document CHEMBL1146184, “Drug self-association modulates the cellular bioavailability of DNA minor groove-directed terbenzimidazoles” (J Med Chem, 2006).

Legend:
Assay type in all cases: ADME, cell-based
RPMI 8402 [1] = test: Uptake in human RPMI8402 cells at 1 uM after 0.5 hrs; settings: rpmi 8402, 0.5 h
RPMI 8402 [2] = test: Uptake in human RPMI8402 cells at 1 uM after 4 hrs; settings: rpmi 8402, 4 h
RPMI 8402 [3] = test: Uptake in human RPMI8402 cells at 1 uM after 1 hr; settings: rpmi 8402, 1 h
RPMI 8402 [4] = test: Uptake in human RPMI8402 cells at 1 uM after 2 hrs; settings: rpmi 8402, 2 h

Drug uptake (RPMI 8402 [1])	Drug uptake (RPMI 8402 [2])	Drug uptake (RPMI 8402 [3])	Drug uptake (RPMI 8402 [4])	Compound
18%	30%			c1ccc(-c2ccc3[nH]c(-c4ccc5[nH]c(-c6ccc7cc[nH]c7c6)nc5c4)nc3c2)cc1
3%	3%	3%	3%	c1ccc(-c2ccc3[nH]c(-c4ccc5[nH]c(-c6ccc7[nH]cnc7c6)nc5c4)nc3c2)cc1
